In patent EP2439195B1, “NAPHTHALENE CARBOXAMIDE DERIVATIVES AS INHIBITORS OF PROTEIN KINASE AND HISTONE DEACETYLASE, PREPARATION METHODS AND USES THEREOF” (Shenzhen Chipscreen Biosciences, Ltd., priority 2009, dated 2010):

Experiments:
human A549 lung cancer = experiment: Nude mice tumor transplanted from human A549 lung cancer (Example 51); assay type: in vivo; conditions: 40 mg/kg orally once a day for 24 days
Description: Then the cultured A549 human lung cancer cells were implanted into the armpit of 50 mice. […] Each group had 8 mice. One group was treated with vehicle. One group was treated with Sutent, the positive control drug. […] Each group was dosed orally once a day for 24 days. Tumor volumes along with body weights were recorded twice per week. On the next day after 24 doses, the mice were killed, and tumors were weighed. The tumor growth inhibition of each group was calculated using the following formula: {[(the average tumor weight of control group)-(the average tumor weight of test group)]/(the average tumor weight of control group)}×100%.

[1] = tested on: SSMC7721 human liver cancer cells; experiment: Nude mice tumor transplanted from human SSMC7721 liver cancer (Example 53); assay type: in vivo; conditions: 40 mg/kg orally once a day for 24 days
Description: Female nu/nu mice of 18∼20g were fed by normal diet for 3 days. Then the cultured SSMC7721 human liver cancer cells were implanted into the armpit of 50 mice. […] One group was treated with vehicle. One group was treated with Sutent, the positive control drug. […] Each group was dosed orally once a day for 24 days. […] The tumor growth inhibition of each group was calculated using the following formula: {[([…])} × 100%. [formula] The experimental results are shown in Table 7 and Figure 3.

human HCT-8 colon cancer [2] = experiment: Nude mice tumor transplanted from human HCT-8 colon cancer (Example 52); assay type: in vivo; conditions: 40 mg/kg orally once a day
Description: Female nu/nu mice of 18∼20g were fed by normal diet for 3 days. Then the cultured HCT-8 human colon cancer cells were implanted into the armpit of 50 mice. […] Each group had 8 mice. One group was treated with vehicle. One group was treated with Sutent, the positive control drug. […] Each group was dosed orally once a day for 24 days. Tumor volumes along with body weights were recorded twice per week. On the next day after 20 doses, the mice were killed, and tumors were weighed. The tumor growth inhibition of each group was calculated using the following formula: {[([…])} × 100%. [formula] The experimental results are shown in Table 6 and Figure 2.

human HCT-8 colon cancer [3] = experiment: Nude mice tumor transplanted from human HCT-8 colon cancer (Example 54); assay type: in vivo; conditions: 40 mg/kg orally once a day for 20 days
Description: (§1) Female nu/nu mice of 18∼20g were fed by normal diet for 3 days. Then the cultured HCT-8 human colon cancer cells were implanted into the armpit of 50 mice. […] Each group had 8 mice. One group was treated with vehicle. One group was treated with Sutent, the positive control drug. Two groups were treated with compound 33 at different concentrations. The other two groups were treated with compound 34 at different concentrations. Each group was dosed orally once a day for 20 days. […] The tumor growth inhibition of each group was calculated using the following formula: {[(the average tumor weight of control group)-(the average tumor weight of test group)]/(the average tumor weight of control group)} × 100%. [formula] The experimental results are shown in Table 8 and Figure 4.

[4] = tested on: human SSMC7721 liver cancer; experiment: Nude mice tumor transplanted from human SSMC7721 liver cancer (Example 56); assay type: in vivo; conditions: for TGI (%): tumor growth inhibition
Description: as §1, with “cultured SSMC7721” for “cultured HCT-8”, “human liver” for “human colon”, “compound 37” for “compound 34”, “for 30” for “for 20”, “Table 10” for “Table 8”, “Figure 6. Table10” for “Figure 4.”

A549 = experiment: Tumor cell proliferation (MTS), A549; assay type: cell-based; conditions: Homo sapiens; A549, 72 hours; read-out: Gl50 µM in A549
Description: (§2) Tumor cells were trypsinized and plated into 96-well plates at 3,000 per well and incubated in complete medium with 10% FBS for 24 hours. Compounds to be tested and vehicle control were added, and the final concentration of compound is in the range of 100 nmol/L to 100 µmol/L. The compounds were incubated for 72 hours in complete medium. The MTS reagent (Promega) was added according to the instruction, incubated for 2 hours at 37°C in CO2 incubator. Then absorbance at 490nm is read using an ELISA plate reader.

MCF-7 = experiment: Tumor cell proliferation (MTS), MCF-7; assay type: cell-based; conditions: Homo sapiens, MCF7; MCF-7, 72 hours; read-out: Gl50 µM in MCF-7
Description: as §2

Bel-7402 = experiment: Tumor cell proliferation (MTS), Bel-7402; assay type: cell-based; conditions: Homo sapiens; Bel-7402, 72 hours; read-out: Gl50 µM in Bel-7402
Description: as §2

human PDGFRβ = target: T1, human PDGFRβ (Homo sapiens, UniProt P09619); experiment: PDGF dependent cell proliferation (MTS); assay type: cell-based; conditions: PDGFRβ NIH-3T3 cells, PDGF BB (50ng/ml), 72 hours, serum-free medium; read-out: Gl50 nM (PDGF ligand-dependent cell proliferation)
T1 construct: expressed in transfected cells
Description: NIH-3T3 mouse fibroblasts cell line engineered to stably express human PDGFRβ was constructed and used to evaluate PDGF dependent cell proliferation. PDGFRβ NIH-3T3 cells were plated into 96-well plates at 5,000 per well and incubated overnight with serum-free medium after 24 hours. Compounds to be tested and PDGF BB (50ng/ml) were added and incubated for 72 hours in serum-free medium. The effects on proliferation were determined by MTS method (Promega) according to the instruction. Incubation was performed for 2 hours at 37°C in CO2 incubator, and absorbance at 490nm was measured using an ELISA plate reader.

total HDAC enzyme = experiment: In vitro total HDAC enzyme activity (HDAC Fluorimetric Assay/Drug Discovery Kit, HeLa cell nuclear extract); assay type: biochemical
Description: The in vitro total HDAC enzyme activity was determined by HDAC Fluorimetric Assay/Drug Discovery Kit (BIOMOL) according to manufacture's instruction. The principle of the experiment is as follows: under the action of histone deacetylase (in the experiment, HeLa cell nuclear extract, which was rich in a variety of subtypes of HDAC, was used), an acetyl group is removed from a special substrate Fluor de Lys, thus the free amino is exposed. Upon Developer is added, the substrate will produce fluorescence. For the fluorescence, excitation wavelength is 360nm, and emission wavelength is 460nm. More fully the substrate deacetylated, more higher the fluorescence induced. In the absence of inhibitors, the fluorescence value is taken as the control; when inhibitor is existed, fluorescence value induced will be reduced, while in the case no enzyme is existed (corresponding to the completely inhibition of enzyme activity) the fluorescence value is blank. Generally, after suppression the fluorescence values will be between the control and blank. When analysis is made, blank will be used as 0, and the control will be used as 1. Smaller value means higher inhibitory activity. 1. Add Assay buffer, diluted trichostatin A and test inhibitor to appropriate wells of the microtiter plate. Following table lists the amounts used for each regent of various assay types.
2. Add diluted HeLa nucleoprotein extract to all wells except those that are marked as "blank". 3. Allow diluted Fluor de Lys™ Substrate and the samples in the microtiter plate to equilibrate to 25°C. 4. Initiate HDAC reactions by adding diluted substrate (25 µl) to each well and mixing thoroughly. 5. Allow reactions to proceed for 30 minutes and then stop them by addition of Fluor de Lys™ Developer (50 µl). Incubate plate at room temperature (25°C) for 10-15 min. 6. Read fluorescence of samples on a microtiter-plate reading fluorimeter at a excitation wavelength of 369 nm and a emitted wavelength of 451 nm.

HUVEC cells = experiment: VEGF dependent cell proliferation (MTS); assay type: cell-based; conditions: Homo sapiens, VEGF 165 (50ng/ml), 72 hours, serum-free medium, read-out: Gl50 nM (VEGF ligand-dependent cell proliferation)
Description: HUVEC cells were plated into 96-well plates at 6,000 per well and after 24 hours incubated with serum-free medium for 2 hours. Compounds to be tested and VEGF 165 (50ng/ml) were added and incubated for 72 hours in serum-free medium. The effects on cell proliferation were determined by MTS method (Promega) according to the instruction. Incubation was performed for 2 hours at 37°C in CO2 incubator, and absorbance at 490nm was determined using an ELISA plate reader.

HCT-8 = experiment: Tumor cell proliferation (MTS), HCT-8; assay type: cell-based; conditions: Homo sapiens; HCT-8, 72 hours; read-out: Gl50 µM in HCT-8
Description: as §2

Class I HDAC = experiment: HDAC subtype selectivity reporter gene assay (P21 reporter, HeLa cells); assay type: cell-based; conditions: Homo sapiens; 10µM; HeLa cells, 24 hours; read-out: Class I HDAC (P21 reporter assay) Fold Induction at 10µM
Description: Different HDAC subtypes can bind with different transcriptional factors and involve in expression regulation of various genes. Suitable regulation elements for transcriptional factors are selected to construct reporter genes, which can be used to evaluate the selective inhibition of inhibors on HDAC subtypes. Briefly, HeLa cells were seeded in 96-well plates the day before transfection to give a confluence of 50-80% when transfection. Cells were transfected with one of reporter gene plasmid containing a p21-promoter sequence or response element upstream of a luciferase gene construct using FuGene6 transfection reagent according to the manufacturer's instruction (Roche). For normalizing the transfection efficiency, a GFP expression plasmid was cotransfected. After 24 hours compounds or the vehicle control (DMSO) were added. 24 hours later the cells were harvested and lysed, and the amount of the luciferase was evaluated using luciferase assay kits (Promega) according to the manufacturer's instructions.

human HCT-8 colon cancer [5] = experiment: Nude mice tumor transplanted from human HCT-8 colon cancer (Example 55); assay type: in vivo; conditions: for TGI (%): tumor growth inhibition
Description: Female nu/nu mice of 18∼20g were fed by normal diet for 3 days. Then the cultured HCT-8 human colon cancer cells were implanted into the armpit of 50 mice. […] One group was treated with vehicle. One group was treated with Sutent, the positive control drug. Two groups were treated with compound 33 at different concentrations. The other two groups were treated with compound 37 at different concentrations. Compound 33 was administered twice a day with an interval of 6 hours. For other groups, administration was performed once a day. Each group was dosed orally for 20 days. […] The tumor growth inhibition of each group was calculated using the following formula: {[(the average tumor weight of control group)-(the average tumor weight of test group)]/(the average tumor weight of control group)} × 100%. [formula] The experimental results are shown in Table 9 and Figure 5.

A-498 = experiment: Tumor cell proliferation (MTS), A-498; assay type: cell-based; conditions: Homo sapiens, A498; A-498, 72 hours; read-out: Gl50 µM in A-498
Description: as §2

[6] = 40 mg/kg orally once a day for 30 days
[7] = 30 mg/kg orally once a day for 30 days
[8] = 60 mg/kg orally once a day for 30 days
[9] = 30 mg/kg orally once a day for 20 days
[10] = 60 mg/kg orally once a day for 20 days

T1 sequence (P09619 33-1106): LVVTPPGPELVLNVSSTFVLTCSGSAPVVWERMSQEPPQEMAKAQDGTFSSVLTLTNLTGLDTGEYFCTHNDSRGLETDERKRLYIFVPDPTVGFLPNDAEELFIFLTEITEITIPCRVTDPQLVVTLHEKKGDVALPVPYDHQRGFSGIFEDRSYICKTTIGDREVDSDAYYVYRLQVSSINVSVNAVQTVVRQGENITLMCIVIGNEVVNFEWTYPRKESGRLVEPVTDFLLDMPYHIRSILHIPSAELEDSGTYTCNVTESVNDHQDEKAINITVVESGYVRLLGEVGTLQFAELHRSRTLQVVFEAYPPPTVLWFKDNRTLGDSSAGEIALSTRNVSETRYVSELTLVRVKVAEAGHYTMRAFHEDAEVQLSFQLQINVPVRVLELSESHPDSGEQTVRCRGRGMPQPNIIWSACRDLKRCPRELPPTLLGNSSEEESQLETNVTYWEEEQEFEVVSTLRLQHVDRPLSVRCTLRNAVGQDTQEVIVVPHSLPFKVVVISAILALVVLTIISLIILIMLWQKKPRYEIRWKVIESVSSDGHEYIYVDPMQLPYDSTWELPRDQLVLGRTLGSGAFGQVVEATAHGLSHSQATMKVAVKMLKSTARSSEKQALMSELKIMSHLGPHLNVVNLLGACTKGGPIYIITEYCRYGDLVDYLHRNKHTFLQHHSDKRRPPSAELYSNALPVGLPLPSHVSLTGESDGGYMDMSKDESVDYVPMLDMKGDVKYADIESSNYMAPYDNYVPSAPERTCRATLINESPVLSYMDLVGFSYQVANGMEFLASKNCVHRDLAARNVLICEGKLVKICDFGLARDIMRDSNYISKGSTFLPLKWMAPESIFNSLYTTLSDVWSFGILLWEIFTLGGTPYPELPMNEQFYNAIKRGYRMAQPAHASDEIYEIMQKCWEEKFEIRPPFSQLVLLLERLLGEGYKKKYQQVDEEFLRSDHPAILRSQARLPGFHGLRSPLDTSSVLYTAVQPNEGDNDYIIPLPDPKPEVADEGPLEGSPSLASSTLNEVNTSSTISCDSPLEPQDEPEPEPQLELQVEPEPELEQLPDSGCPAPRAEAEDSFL

Compound: CCN(CC)CCNC(=O)c1c(C)[nH]c(/C=C2\C(=O)Nc3ccc(F)cc32)c1C [Sutent, sunitinib, reference compound]
- Tumor weight (human A549 lung cancer): 2.06 ± 0.71 g
- Body weight (g) end (human A549 lung cancer; end): 24.4 ± 2.3 g
- Body weight (g) start (human A549 lung cancer; start): 20.3 ± 1.4 g
- TGI (%) (human A549 lung cancer; tumor growth inhibition): 50.9%
- Tumor weight [1]: 1.00 ± 0.68 g
- Body weight (g) end ([1]; end): 24.8 ± 1.2 g
- Body weight (g) start ([1]; start): 21.0 ± 0.8 g
- TGI (%) ([1]; tumor growth inhibition): 70.3%
- Body weight (g) end (human HCT-8 colon cancer [2]; end): 22.4 ± 1.1 g
- Tumor weight (human HCT-8 colon cancer [2]; killed after 20 doses): 0.23 ± 0.07 g
- Body weight (g) start (human HCT-8 colon cancer [2]; start): 21.5 ± 0.7 g
- TGI (%) (human HCT-8 colon cancer [2]; tumor growth inhibition): 95.3%
- Tumor weight (human HCT-8 colon cancer [3]): 0.44 ± 0.15 g
- Body weight (g) end (human HCT-8 colon cancer [3]; end): 22.1 ± 1.5 g
- Body weight (g) start (human HCT-8 colon cancer [3]; start): 20.6 ± 1.2 g
- TGI (%) (human HCT-8 colon cancer [3]; tumor growth inhibition): 89.1%
- Tumor weight [4, 6]: 0.88 ± 0.39 g
- Body weight (g) end [4, 6]: 24.0 ± 0.6 g
- Body weight (g) start [4, 6]: 21.2 ± 1.1 g
- TGI (%) [4, 6]: 61.1%

Compound: COc1cc2nccc(Oc3ccc4c(C(=O)NCc5ccc(C(=O)Nc6ccccc6N)cc5)cccc4c3)c2cc1OC [Compound 37, N-(4-((2-aminophenyl)carbamoyl)benzyl)-6-(6,7-dimethoxyquinolin-4-yloxy)-1-naphthamide]
- IC50 (A549): 30 µM
- IC50 (MCF-7): 30 µM
- IC50 (Bel-7402): 30 µM
- IC50 (human PDGFRβ): 0.159 µM
- % inhibition of total HDAC enzyme activity at 30µM (total HDAC enzyme): 35.9%
- IC50 (HUVEC cells): 0.004 µM
- Tumor weight [4, 7]: 1.45 ± 0.58 g
- Body weight (g) end [4, 7]: 25.3 ± 0.9 g
- Body weight (g) start [4, 7]: 20.7 ± 1.2 g
- TGI (%) [4, 7]: 35.6%
- Tumor weight [4, 8]: 1.28 ± 0.51 g
- Body weight (g) end [4, 8]: 24.3 ± 1.1 g
- Body weight (g) start [4, 8]: 21.4 ± 0.6 g
- TGI (%) [4, 8]: 43.3%
- IC50 (HCT-8): 30 µM
- fold induction at 10 µM (Class I HDAC): 3
- Tumor weight (human HCT-8 colon cancer [5]; [9]): 3.89 ± 1.19 g
- Body weight (g) end (human HCT-8 colon cancer [5]; [9]): 23.6 ± 2.2 g
- Body weight (g) start (human HCT-8 colon cancer [5]; [9]): 20.6 ± 0.8 g
- TGI (%) (human HCT-8 colon cancer [5]; [9]): 36.5%
- Tumor weight (human HCT-8 colon cancer [5]; [10]): 3.36 ± 0.80 g
- Body weight (g) end (human HCT-8 colon cancer [5]; [10]): 24.1 ± 2.1 g
- Body weight (g) start (human HCT-8 colon cancer [5]; [10]): 20.8 ± 0.8 g
- TGI (%) (human HCT-8 colon cancer [5]; [10]): 45.1%
- IC50 (A-498): 30 µM
